According to PMC9595134, “Novel pituitary actions of GnRH in teleost: The link between reproduction and feeding regulation” (Frontiers in Endocrinology, 2022):

Key:
[1] = test system: grass carp pituitary cells; test: Signal transduction: pathway inhibitors on GnRH-regulated reproductive gene mRNA; type: cell-based, grass carp (Ctenopharyngodon idellus); details: U73122 10 μM, GF109203X 20 μM, 2-APB 100 μM, MDL12330A 20 μM, H89 20 μM, nifedipine 10 μM, calmidazolium 1 μM, KN62 5 μM; for blockade of GnRH2-induced GtHα, LHβ, FSHβ, INHBa, and SgII mRNA expression: cotreated with GnRH2, 24 h; for blockade of GnRH3-induced GtHα, LHβ, FSHβ, INHBa, and SgII mRNA expression: cotreated with GnRH3, 24 h
Description: (§1) The preparation of grass carp pituitary cells was performed as mentioned above. After drug treatment, the total RNA of these cells was isolated by TRIzol reagent and reverse transcribed into cDNA with Hifair™ III 1st Strand cDNA Synthesis Kit. The transcript levels of several anorectic peptides (POMCb, CART2, UTS1, NMBa, NMBb, and Lepr) and reproductive genes (GtHα, LHβ, FSHβ, INHBa, SgII, DRD2) were detected by using an ABI 7500 quantitative real-time PCR (qRT-PCR) system (Biosystems, USA) (information of primers for target genes is listed in Supplementary Table S3 ). In this process, a serial gradient dilution of plasmid DNA of these genes was used as a standard for data calibration. The conditions of qRT-PCR were set to 10 min, 95°C, for pre-degeneration; 15 s, 95°C, for degeneration; 30 s, 55°C–60°C, for annealing; 30 s, 72°C, for extending; and 20 s, 82°C, for signal detection with 40 cycles. Finally, the melt curve obtained through each test was used to verify and check the reliability and specificity of the corresponding qRT-PCR.
(§2) In this experiment, GnRH2 (A) or GnRH3 (B) combined with/without the PLC inhibitor U73122 (10 μM), PKC inhibitor GF109203X (20 μM), or IP3 receptor blocker 2-APB (100 μM) was used to incubate the grass carp pituitary cells for 24 (h) After drug treatment, the total RNA was extracted from the cells for real-time PCR of the respective genes. Data presented are expressed as mean ± SEM, and the different letters represent a significant difference at p < 0.05 between groups (ANOVA followed by a Dunnett test).
as §2, with “AC” for “PLC”, “MDL12330A (20 μM) or PKA” for “U73122 (10 μM), PKC”, “H89” for “GF109203X”, “(20” for “(20 μM), or IP3 receptor blocker 2-APB (100”
Data presented are expressed as mean ± SEM, and the different letters represent a significant difference at p < 0.05 between groups (ANOVA followed by a Dunnett test).

[2] = test system: grass carp pituitary cells; test: Signal transduction: pathway inhibitors on GnRH-induced anorectic gene mRNA; type: cell-based, grass carp (Ctenopharyngodon idellus); details: U73122 10 μM, GF109203X 20 μM, 2-APB 100 μM, MDL12330A 20 μM, H89 20 μM, nifedipine 10 μM, calmidazolium 1 μM, KN62 5 μM; for blockade of GnRH2-induced POMCb, CART2, UTS1, NMBa, NMBb, and LEPR mRNA expression: cotreated with GnRH2, 24 h; for blockade of GnRH3-induced POMCb, CART2, UTS1, NMBa, NMBb, and LEPR mRNA expression: cotreated with GnRH3, 24 h
Description: as §1
To explore the signal transduction for GnRH-induced target gene mRNA expression, the method mentioned above was performed.
as §2, with “Figure 10 Signal transduction for GnRH2- and GnRH3-induced POMCb, CART2, UTS1, NMBa, NMBb, and LEPR mRNA expression in grass carp pituitary cells. In” for “In”
as §2, with “Figure 11 Signal transduction for GnRH2- and GnRH3-induced POMCb, CART2, UTS1, NMBa, NMBb, and LEPR mRNA expression in grass carp pituitary cells. In” for “In”, “AC” for “PLC”, “MDL12330A (20 μM) or PKA” for “U73122 (10 μM), PKC”, “H89” for “GF109203X”, “(20” for “(20 μM), or IP3 receptor blocker 2-APB (100”
Figure 12 Signal transduction for GnRH2- and GnRH3-induced POMCb, CART2, UTS1, NMBa, NMBb, and LEPR mRNA expression in grass carp pituitary cells. […] Data presented are expressed as mean ± SEM, and the differences between groups were significant at p < 0.05 by labelling diverse letters (ANOVA followed by a Dunnett test).

DRD2 = details: teleost; ref [37]; cited from earlier work
grass carp pituitary = details: ref [15]; cited from earlier work
Description: As we know, energy metabolism was associated with reproductive behavior in vertebrates ([11]), and adequate energy reserve was essential for breeding ([12]).

Molecule	blockade of GnRH2-induced GtHα, LHβ, FSHβ, INHBa, and SgII mRNA expression [1]	blockade of GnRH3-induced GtHα, LHβ, FSHβ, INHBa, and SgII mRNA expression [1]	blockade of GnRH2-induced POMCb, CART2, UTS1, NMBa, NMBb, and LEPR mRNA expression [2]	blockade of GnRH3-induced POMCb, CART2, UTS1, NMBa, NMBb, and LEPR mRNA expression [2]	effect on LH synthesis via activation of DRD2 (DRD2)	effect on LH secretion and synthesis (grass carp pituitary)
NCCOB(c1ccccc1)c1ccccc1 [2-APB]	could block	could block	could block	could block		
CN(C)CCCn1cc(C2=C(c3c[nH]c4ccccc34)C(=O)NC2=O)c2ccccc21 [GF109203X]	could block	could block	could block	could block		
O=S(=O)(NCCNC/C=C/c1ccc(Br)cc1)c1cccc2cnccc12 [H89]	could also be blocked	could also be blocked	could block	could block		
CN([C@@H](Cc1ccc(OS(=O)(=O)c2cccc3cnccc23)cc1)C(=O)N1CCN(c2ccccc2)CC1)S(=O)(=O)c1cccc2cnccc12 [KN62]	could also block	could also block	could block	could block		
Cl.c1ccc(C2CCCC2NC2=NCCCCCCCCCCC2)cc1 (centres unmarked) [MDL12330A]	could also be blocked	could also be blocked	could block	could block		
COc1ccc2c(c1)CC[C@@H]1[C@@H]2CC[C@]2(C)[C@@H](NCCCCCCN3C(=O)C=CC3=O)CC[C@@H]12 [U73122]	could block	could block	could block	could block		
Clc1ccc(C(c2ccc(Cl)cc2)n2cc[n+](CC(OCc3ccc(Cl)cc3Cl)c3ccc(Cl)cc3Cl)c2)cc1 (centres unmarked) [calmidazolium]	could also block	could also block	could block	could block		
NCCc1ccc(O)c(O)c1 [dopamine]					inhibited	
COC(=O)C1=C(C)NC(C)=C(C(=O)OC)C1c1ccccc1[N+](=O)[O-] [nifedipine]			could block	could block		
prolactin-releasing peptide [PRRP]						significantly induce
